The test system of the experiment is L1210 leukemia ip in BDF1 mice, survival T/C. Kind of experiment: NCI In Vivo Anticancer Drug Screen. Data for tumor model L1210 Leukemia (intraperitoneal) in B6D2F1 (BDF1) mice. The following applies: endpoint: mean survival time, higher = longer survival. In outline: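 Tumor cells were implanted, animals were treated, and survival was followed. The result divides the treated measurement by the vehicle-control measurement.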

Setting [1] is: dose: 100.0 mg/kg/injection, schedule: Q01DX001 (ip), vehicle: carboxymethylcellulose (CMC).
The mark [2] stands for this setting: dose: 200.0 mg/kg/injection, schedule: Q01DX001 (ip), vehicle: carboxymethylcellulose (CMC).
The mark [3] stands for this setting: dose: 400.0 mg/kg/injection, schedule: Q01DX001 (ip), vehicle: carboxymethylcellulose (CMC).
Setting [4] is: dose: 100.0 mg/kg/injection, schedule: Q04DX003 (ip), vehicle: saline.
Where [5] appears, read: dose: 200.0 mg/kg/injection, schedule: Q04DX003 (ip), vehicle: saline.
[6] abbreviates: dose: 400.0 mg/kg/injection, schedule: Q04DX003 (ip), vehicle: saline.
[7] abbreviates: dose: 100.0 mg/kg/injection, schedule: Q01DX009 (ip), vehicle: Klucel (hydroxypropylcellulose) (HPC).
The mark [8] stands for this setting: dose: 200.0 mg/kg/injection, schedule: Q01DX009 (ip), vehicle: Klucel (hydroxypropylcellulose) (HPC).
Where [9] appears, read: dose: 100.0 mg/kg/injection, schedule: Q01DX001 (ip), vehicle: saline.
Where [10] appears, read: dose: 200.0 mg/kg/injection, schedule: Q01DX001 (ip), vehicle: saline.
Setting [11] is: dose: 100.0 mg/kg/injection, schedule: Q04DX002 (ip), vehicle: Klucel (hydroxypropylcellulose) (HPC).
[12] abbreviates: dose: 200.0 mg/kg/injection, schedule: Q04DX002 (ip), vehicle: Klucel (hydroxypropylcellulose) (HPC).
Setting [13] is: dose: 400.0 mg/kg/injection, schedule: Q04DX002 (ip), vehicle: Klucel (hydroxypropylcellulose) (HPC).
[14] abbreviates: dose: 100.0 mg/kg/injection, schedule: Q04DX003 (ip), vehicle: Klucel (hydroxypropylcellulose) (HPC).
The mark [15] stands for this setting: dose: 200.0 mg/kg/injection, schedule: Q04DX003 (ip), vehicle: Klucel (hydroxypropylcellulose) (HPC).
[16] abbreviates: dose: 400.0 mg/kg/injection, schedule: Q04DX003 (ip), vehicle: Klucel (hydroxypropylcellulose) (HPC).
The mark [17] stands for this setting: dose: 400.0 mg/kg/injection, schedule: Q01DX001 (ip), vehicle: saline.
Setting [18] is: dose: 100.0 mg/kg/injection, schedule: Q01DX001 (ip), vehicle: Klucel (hydroxypropylcellulose) (HPC).
Setting [19] is: dose: 200.0 mg/kg/injection, schedule: Q01DX001 (ip), vehicle: Klucel (hydroxypropylcellulose) (HPC).
Where [20] appears, read: dose: 400.0 mg/kg/injection, schedule: Q01DX001 (ip), vehicle: Klucel (hydroxypropylcellulose) (HPC).

The structures appear in SMILES notation. Where “and” joins values, the source holds several entries; their conditions need not be identical. Identical values can stand only once. Toxic doses and inconclusive results are not listed.

Regarding `C[N+]1(C2CCC3CCC2C3=O)CCCC1` (stereo not given), the T/C (dose: 75.0 mg/kg/injection, schedule: Q01DX001 (ip), vehicle: saline) is 97 % of control and the T/C (dose: 150.0 mg/kg/injection, schedule: Q01DX001 (ip), vehicle: saline) is 97 % of control.

In the case of `CC(=O)Oc1ccc(-c2ccc(Cl)cc2)cc1`, the T/C under setting [1] was 103 % of control, the T/C under setting [2] is 109 % of control and the T/C under setting [3] was 97 % of control.

As to `CSc1cc(=O)n(C2OC(COC(C)=O)C(OC(C)=O)C2OC(C)=O)c(=O)[nH]1` (stereo not given), the T/C reads like this: (dose: 100.0 mg/kg/injection, schedule: Q01DX005 (ip), vehicle: saline) 95 % of control; (dose: 200.0 mg/kg/injection, schedule: Q01DX005 (ip), vehicle: saline) 97 % of control.

In the case of `CCOC(=O)C(C(C)=O)C(c1ccc(OCc2ccccc2)c(C)c1)C(C(C)=O)C(=O)OCC` (stereo not given), the T/C is, setting by setting: under setting [4], 94 % of control; under setting [5], 94 % of control; under setting [6], 95 % of control.

Consider `CCOc1ccccc1NC(=O)Oc1cc(C)c(Cl)c(C)c1`, for which the T/C under setting [7] was 104 % of control; the T/C under setting [8] was 98 % of control; the T/C (dose: 400.0 mg/kg/injection, schedule: Q01DX009 (ip), vehicle: Klucel (hydroxypropylcellulose) (HPC)) is 100 % of control.

Consider `O=C(/C=N\O)c1ccncc1`, for which the T/C under setting [7] is 100 % of control and the T/C under setting [8] was 94 % of control.

Take `Cl/C=C(\Cl)CCl`: the T/C reads like this: (dose: 100.0 mg/kg/injection, schedule: Q01DX009 (ip), vehicle: saline with Tween-80) 100 % of control; under setting [4], 97 % of control; under setting [5], 102 % of control; under setting [6], 105 % of control.

Consider `[N-]=[N+]=Nc1c2ccccc2nc2ccccc12`, for which the T/C reads like this: (dose: 2.0 mg/kg/injection, schedule: Q01DX001 (ip), vehicle: saline) 92 % of control; (dose: 4.0 mg/kg/injection, schedule: Q01DX001 (ip), vehicle: saline) 94 % of control; (dose: 8.0 mg/kg/injection, schedule: Q01DX001 (ip), vehicle: saline) 103 % of control.

For `CCCCc1nc2c(c(=O)n(C)c(=O)n2C)n1C`, the T/C was 96 % of control (dose: 50.0 mg/kg/injection, schedule: Q01DX001 (ip), vehicle: saline); 96 % of control under setting [9]; 102 % of control under setting [10].

In the case of `S=c1nc[nH]c2c1ncn2C1CCCO1` (stereo not given), the T/C (dose: 75.0 mg/kg/injection, schedule: Q01DX Z (ip), vehicle: methylcellulose (MC)) is 159 % of control.

In the case of `COC(=O)C1C(=O)CC2(C)CCCCC12` (stereo not given), the T/C is, setting by setting: under setting [11], 97 % of control; under setting [12], 100 % of control; under setting [13], 93 % of control.

Turning to `Cc1nc(N)cc(=O)[nH]1`, the T/C (dose: 100.0 mg/kg/injection, schedule: Q01DX009 (ip), vehicle: water) is 112 % of control; the T/C (dose: 100.0 mg/kg/injection, schedule: Q04DX003 (ip), vehicle: water) was 97 % of control; the T/C (dose: 200.0 mg/kg/injection, schedule: Q01DX009 (ip), vehicle: water) was 104 % of control; the T/C (dose: 200.0 mg/kg/injection, schedule: Q04DX003 (ip), vehicle: water) is 97 % of control; the T/C (dose: 400.0 mg/kg/injection, schedule: Q04DX003 (ip), vehicle: water) is 97 % of control.

Turning to `OCC(O)C1OC(Oc2ccccc2)C(O)C(O)C1O` (stereo not given), the T/C is 100 % of control under setting [4], 98 % of control under setting [5] and 100 % of control under setting [6].

`CC(=O)Cc1cc(C)c(C(C)=O)c(O)c1C(C)=O`: the T/C under setting [14] is 103 % of control, the T/C under setting [15] was 108 % of control and the T/C under setting [16] is 105 % of control.

As to `CC(=O)Nc1ccc2ccccc2c1-c1c(N)ccc2ccccc12`, the T/C by setting is: (dose: 100.0 mg/kg/injection, schedule: Q01DX009 (ip), vehicle: gum acacia) 91 % of control; (dose: 100.0 mg/kg/injection, schedule: Q04DX003 (ip), vehicle: gum acacia) 97 % of control; (dose: 200.0 mg/kg/injection, schedule: Q01DX009 (ip), vehicle: gum acacia) 96 % of control; (dose: 200.0 mg/kg/injection, schedule: Q04DX003 (ip), vehicle: gum acacia) 92 % of control; (dose: 400.0 mg/kg/injection, schedule: Q01DX009 (ip), vehicle: gum acacia) 99 % of control; (dose: 400.0 mg/kg/injection, schedule: Q04DX003 (ip), vehicle: gum acacia) 101 % of control.

Regarding `NC(=S)NS(=O)(=O)c1ccc(N)cc1`, the T/C by setting is: (dose: 89.0 mg/kg/injection, schedule: Q01DX001 (ip), vehicle: saline) 97 % of control and 98 % of control; under setting [9], 104 % of control; (dose: 133.0 mg/kg/injection, schedule: Q01DX001 (ip), vehicle: saline) 98 % of control and 104 % of control; under setting [10], 96 % of control and 92 % of control; (dose: 300.0 mg/kg/injection, schedule: Q01DX001 (ip), vehicle: saline) 93 % of control and 102 % of control; under setting [17], 98 % of control.

Take `Cc1ccccc1OB(Oc1ccccc1C)Oc1ccccc1C`: the T/C reads like this: under setting [9], 101 % of control; under setting [10], 109 % of control; under setting [17], 95 % of control.

On to `CCOc1ccc(Br)cc1C1N(Cc2ccccc2OC)CCCN1Cc1ccccc1OC`, for which the T/C runs as follows: under setting [1], 100 % of control; under setting [2], 92 % of control; under setting [3], 94 % of control.

`CC1(C)C2CCC1(C)C(C(=O)C(F)(F)F)C2=O.CC1(C)C2CCC1(C)C(C(=O)C(F)(F)F)C2=O.[Mn]` (stereo not given): the T/C (dose: 50.0 mg/kg/injection, schedule: Q04DX002 (ip), vehicle: saline with Tween-80) was 94 % of control; the T/C (dose: 100.0 mg/kg/injection, schedule: Q04DX002 (ip), vehicle: saline with Tween-80) was 98 % of control; the T/C (dose: 200.0 mg/kg/injection, schedule: Q04DX002 (ip), vehicle: saline with Tween-80) was 98 % of control.

On to `CCCCCCCCCCCCCCC(=O)O`, for which the T/C by setting is: under setting [18], 108 % of control; under setting [19], 93 % of control; under setting [20], 93 % of control.

Regarding `O=C1c2ccccc2C(=O)N1C1CCCCCCC1`, the T/C was 94 % of control under setting [11], 100 % of control under setting [12] and 97 % of control under setting [13].

With `O=C1CCCN1C[CH2][Sn]([c]1ccccc1)([c]1ccccc1)[c]1ccccc1`, the T/C reads like this: (dose: 50.0 mg/kg/injection, schedule: Q01DX009 (ip), vehicle: saline) 104 % of control; (dose: 100.0 mg/kg/injection, schedule: Q01DX009 (ip), vehicle: saline) 96 % of control; (dose: 200.0 mg/kg/injection, schedule: Q01DX009 (ip), vehicle: saline) 107 % of control.

Turning to `CC(C)C(CNC1=NCCN1)c1cccc2ccccc12` (stereo not given), the T/C by setting is: (dose: 12.5 mg/kg/injection, schedule: Q04DX003 (ip), vehicle: saline with Tween-80) 93 % of control; (dose: 25.0 mg/kg/injection, schedule: Q04DX003 (ip), vehicle: saline with Tween-80) 93 % of control; (dose: 50.0 mg/kg/injection, schedule: Q04DX003 (ip), vehicle: saline with Tween-80) 119 % of control.

For `CS(=O)(=O)c1nc(Cl)nc(S(C)(=O)=O)c1Cl`, the T/C is 110 % of control under setting [14], 107 % of control under setting [15] and 104 % of control under setting [16].

`CCNCCCNc1ccnc2cc(Cl)ccc12`: the T/C reads like this: (dose: 10.0 mg/kg/injection, schedule: Q01DX001 (ip), vehicle: saline) 96 % of control; (dose: 20.0 mg/kg/injection, schedule: Q01DX001 (ip), vehicle: saline) 98 % of control; (dose: 40.0 mg/kg/injection, schedule: Q01DX001 (ip), vehicle: saline) 93 % of control.

With `O=C1/C(=C/c2ccco2)CC/C1=C\c1ccco1`, the T/C under setting [18] is 93 % of control; the T/C under setting [14] was 94 % of control; the T/C under setting [19] was 101 % of control; the T/C under setting [15] was 96 % of control; the T/C under setting [20] is 95 % of control; the T/C under setting [16] is 96 % of control.

The values above are taken from PubChem BioAssay AID248 (DTP/NCI, 2004).
